# Results taken from patent US4347319A, “Microbiological epoxidation process” (priority 1980, dated 1982).
# Where two headings read alike, the source gives them in different places.
# Key:
# [1] = system: Methylococcus capsulatus CRL M1 NRRL B-11,219; assay: Sec. alcohol oxidation by cell suspensions of methanol-grown cells; type: cell-based; details: sec. alcohol to methyl ketone
# [2] = system: Methylobacter bovis CRL 19 NRRL B-11,217; assay: as above; type: cell-based; details: sec. alcohol to methyl ketone
# [3] = system: Kloeckera sp. Strain A2 (NRRLY-11,420); assay: Oxidation of sec-alcohols to ketones by cell suspensions of yeasts; type: cell-based; details: sec-alcohol to methyl ketone
# [4] = system: cell-free soluble extract of Methylococcus capsulatus CRL M1 (NRRL B-11,219); details: NAD added
# Protocol: (§1) To prepare the cell-free secondary alcohol dehydrogenous (SADH) system, the washed cells were disrupted with a Wave Energy Ultrasonic Oscillator, Model W201 (Wave Energy System, Inc., Newtown, Pa.) and centrifuged at 20,000×g. for 30 minutes. […] The enzyme activity was measured with a fluorescence spectrophotometer (Perkin Elmer, Model MPF 44A) by following the formation of reduced NAD (EX 340 nm, Em 460 nm). The formation of reduced NAD was also followed with an absorption spectrophotometer at 340 nm. The assay system (3 ml.) contained: potassium phosphate buffer pH 7.0; 150 μmol.; NAD 1 μmol.; a given amount of enzyme preparation; and secondary alcohol 10 μmol. The reaction was started by the addition of substrate. One unit of enzyme activity represents the reduction of one μmole NAD per minute. Protein concentrations were determined by the Lowry method as referenced above.
# (§2) The experimental procedure for the tests reported in Table XVII were as follows: 1 mg protein of crude extract was added into a 0.5 ml. 0.05 M phosphate buffer (pH 7.0) in a 10-ml. vial. […] The reaction mixture was incubated at 30° C. on a water bath. A 3 μl sample was removed with a syringe at 15 min. of incubation and was assayed with g.l.c. Catalytic activity was also assayed by fluorescence spectrophotometry.
# [5] = system: cell-free soluble extract of Methylobacterium organophilium CRL 26 (NRRL B 11,222); details: NAD added
# Protocol: as §1, §2
# [6] = system: cell-free soluble extract of Methylosinus trichosporium OB3b (NRRL B-11,196); details: NAD added
# Protocol: as §1, §2
# [7] = system: Hansenula polymorpha ATCC 26012; assay: Oxidation of sec-alcohols to ketones by cell suspensions of yeasts; type: cell-based; details: sec-alcohol to methyl ketone
# Pichia sp. NRRL-Y-11328 = assay: as above; type: cell-based; details: sec-alcohol to methyl ketone
# [8] = system: cell extract of Pichia sp. NRRL-Y-11,328; assay: Oxidation of secondary alcohols to methylketone by cell extracts of yeasts; type: biochemical; details: methanol-grown; cell extract + NAD^+; sec. alcohol to methyl ketone; gas chromatography
# [9] = system: methylotrophic microorganism strains of the present invention grown on methanol; assay: Comparative test with methanol-grown washed cell suspensions; type: cell-based
# [10] = system: methane-grown strain Methylococcus capsulatus NRRL B-11,219; assay: Effect of methane on the epoxidation of propylene by a cell suspension; type: cell-based; details: in the presence of methane
# Text: Both the epoxidation of the C2 -C4 1-alkenes and the hydroxylation of methane with the cell suspensions were inhibited by various metal-binding and metal-chelating agents, indicating the involvement of metal(s)-containing enzyme system(s). […] The epoxidation of propylene to propylene oxide by a cell suspension of methane-grown strain Methylococcus capsulatus NRRL B-11,219 was inhibited (50%) in the presence of the hydroxylation substrate, methane (Table XV). […] It is likely that the methane mono-oxygenase enzyme system catalyzes both the epoxidation of alkene and the hydroxylation of methane. May and Abbott publications, supra, have reported that the ω-hydroxylation system from Pseudomonas oleovorans catalyzed both the epoxidation of 1-octene and the hydroxylation of n-octane.
# [11] = system: Methylocystis parvus (CRL 18 PM4) NRRL B-11,204; assay: Oxidation by washed cell suspensions of methane-grown cells; type: cell-based; details: methane-grown washed cells, 30° C.; methane to methanol, alkene to 1,2-epoxide
# Method in brief: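 Cells grown 2 days at 30 °C under methane/air 1:1 (pH 7.0 medium), washed and resuspended in 0.15 M phosphate pH 7.0. Suspension (2 mg cells) incubated at 30 °C, 300 rpm under substrate/O2 1:1 (liquid substrates 10 μl); products measured periodically by GC with flame ionization detection.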
smiles,measurement,setting,value
CCC(C)O (stereo not drawn) [2-Butanol],Conversion Rates,[1],2.0 μmoles/hr/mg protein
same,Conversion Rates,[2],1.8 μmoles/hr/mg protein
same,Conversion Rate,[3]; growth substrate Ethanol,5.7 μmoles/hr/mg of protein
same,Conversion Rate,[3]; growth substrate Methanol,5.9 μmoles/hr/mg of protein
same,Conversion Rate,[3]; growth substrate Methylamine,5.4 μmoles/hr/mg of protein
same,Conversion Rate,[3]; growth substrate Methylformate,5.9 μmoles/hr/mg of protein
same,Conversion Rate,[3]; growth substrate Propylamine,4.2 μmoles/hr/mg of protein
same,Conversion Rate 2-butanol to 2-butanone,[4]; growth substrate CH3 OH,2.0 nmoles/min/mg protein
same,Conversion Rate 2-butanol to 2-butanone,[4]; growth substrate CH4,3.2 nmoles/min/mg protein
same,Conversion Rate 2-butanol to 2-butanone,[5]; growth substrate CH3 OH,2.5 nmoles/min/mg protein
same,Conversion Rate 2-butanol to 2-butanone,[5]; growth substrate CH4,1.8 nmoles/min/mg protein
same,Conversion Rate 2-butanol to 2-butanone,[6]; growth substrate CH3 OH,2.4 nmoles/min/mg protein
same,Conversion Rate 2-butanol to 2-butanone,[6]; growth substrate CH4,4.5 nmoles/min/mg protein
same,Conversion Rate,[7]; growth substrate Ethanol,4.8 μmoles/hr/mg of protein
same,Conversion Rate,[7]; growth substrate Methanol,5.8 μmoles/hr/mg of protein
same,Conversion Rate,[7]; growth substrate Methylamine,4.5 μmoles/hr/mg of protein
same,Conversion Rate,[7]; growth substrate Methylformate,5.2 μmoles/hr/mg of protein
same,Conversion Rate,[7]; growth substrate Propylamine,4.0 μmoles/hr/mg of protein
same,Conversion Rate,Pichia sp. NRRL-Y-11328; growth substrate Ethanol,6.2 μmoles/hr/mg of protein
same,Conversion Rate,Pichia sp. NRRL-Y-11328; growth substrate Methanol,6.8 μmoles/hr/mg of protein
same,Conversion Rate,Pichia sp. NRRL-Y-11328; growth substrate Methylamine,5.1 μmoles/hr/mg of protein
same,Conversion Rate,Pichia sp. NRRL-Y-11328; growth substrate Methylformate,6.9 μmoles/hr/mg of protein
same,Conversion Rate,Pichia sp. NRRL-Y-11328; growth substrate Propylamine,2.1 μmoles/hr/mg of protein
same,Conversion Rate,[8],6.2 μmoles/hr/mg Protein
C [Methane],hydroxylation / epoxidation ability,[9],did not possess the ability
same,inhibition of the epoxidation of propylene to propylene oxide,[10],50%
C=CC [Propylene],Oxidative Conversion Rates,[11],1.5 μmole/hr/mg protein
